Measurements taken from patent publication US9757385B2, “Method of treating leukemia using pharmaceutical formulation containing thienotriazolodiazepine compounds” (ONCOETHIX GmbH, priority 2013, dated 2017).
Counter-ions that a name gives are not always drawn.

Experiments:
HDAC = details: cited from earlier work
HDAC3 = HDAC3 (Homo sapiens, UniProt O15379); details: cited from earlier work
mTOR = mTOR (Homo sapiens, UniProt P42345); details: cited from earlier work
PI3K/mTOR = details: dual PI3K/mTOR inhibitor; cited from earlier work
BRD2 and BRD4 = BRD2 and BRD4 mRNA and protein in Jurkat cells; assay type: cell-based, human
U937 = assay: MTT assay, anti-proliferative effect; assay type: cell-based; details: Homo sapiens, U-937; U937, 72-h exposure; range given for HL60, U937 and Jurkat together
Method: (§1) MTT assays were performed after 72 hours exposure. Protein levels were analyzed by Western Blot using commercial antibodies. RNA was extracted using the Qiagen RNAEasy and RT-PCR was performed using Fast SYBR Green on a StepOnePlus Real-Time PCR System. Combination effects were evaluated in four cell lines (HL60, U937, Jurkat and K562); compound (1-1) was administered with daunorubicin, azacytidine, dexamethasone, cytarabine or methotrexate. The 48 h Combination Index (CI) was determined by median effect plot analysis using CalcuSyn software expressed as the median and range of CI values among cell lines (Chou & Talalay analysis). CI<1 reflects synergy effects, CI=1 reflects additivity and CI>1 reflects antagonist effects.
(§2) Four established human cell lines derived from acute (HL60, U937), chronic (K562) myeloid leukemia, and acute lymphoblastic leukemia (Jurkat) were treated with increasing compound (1-1) doses. MTT assays were performed after 72 h exposure. GI50 and Emax values were calculated with the equation for sigmoidal dose response using Prism 5.00. Results are the mean±95% CI of at least 3 independent experiments performed in triplicate. […] Protein levels were analyzed by Western Blot using commercial antibodies. For cell cycle analysis and apoptosis induction, cells were stained with PI or Annexin V respectively, and analyzed using a FACScan flow cytometer. RT-PCR was performed using Fast SYBR Green Master Mix on a StepOnePlus Real-Time PCR System. […] Compound (1-1) combination studies were performed in cell lines exposed for 48 h to increasing doses of compound (1-1) alone or in combination several conventional anti-leukemic drugs, such as epigenetic modulators, steroids, m-TOR inhibitors and classical cytotoxic agents, and assessed using the Chou & Talalay method. […] The Combination Index (CI) was determined by median effect plot analysis using CalcuSyn software. […]

Jurkat = assay: MTT assay, anti-proliferative effect; assay type: cell-based; details: Homo sapiens, 72-h exposure, range given for HL60, U937 and Jurkat together
Method: as §1, §2

HL60 = assay: MTT assay, anti-proliferative effect; assay type: cell-based; details: Homo sapiens, HL-60; HL60, 72-h exposure; range given for HL60, U937 and Jurkat together
Method: as §1, §2

c-MYC [1] = assay: c-MYC RNA and protein in resistant cell line K562; assay type: cell-based, human
Method: as §1
(§3) Four established human cell lines derived from acute (HL60, U937), chronic (K562) myeloid leukemia, and acute lymphoblastic leukemia (Jurkat) were treated with increasing compound (1-1) doses. MTT assays were performed after 72 h exposure. GI50 and Emax values were calculated with the equation for sigmoidal dose response using Prism 5.00. […] Protein levels were analyzed by Western Blot using commercial antibodies. For cell cycle analysis and apoptosis induction, cells were stained with PI or Annexin V respectively, and analyzed using a FACScan flow cytometer. […] The Combination Index (CI) was determined by median effect plot analysis using CalcuSyn software. […]

[2] = system: HL60, U937, Jurkat and K562; assay: Combination Index, Chou & Talalay median effect analysis; assay type: cell-based, human; details: OTX015-sensitive and resistant leukemic cells lines
c-MYC [3] = assay: c-MYC mRNA (RT-PCR) and protein (Western Blot) in sensitive cell lines; assay type: cell-based, human
Method: as §1, §3

[4] = system: compound (1-1) sensitive cell lines (HL60, U937 and Jurkat); assay: Cell cycle analysis and apoptosis induction; assay type: cell-based, human
Method: Four established human cell lines derived from acute (HL60, U937), chronic (K562) myeloid leukemia, and acute lymphoblastic leukemia (Jurkat) were treated with increasing compound (1-1) doses. MTT assays were performed after 72 h exposure. GI50 and Emax values were calculated with the equation for sigmoidal dose response using Prism 5.00. Results are the mean±95% CI of at least 3 independent experiments performed in triplicate. […] Protein levels were analyzed by Western Blot using commercial antibodies. For cell cycle analysis and apoptosis induction, cells were stained with PI or Annexin V respectively, and analyzed using a FACScan flow cytometer. RT-PCR was performed using Fast SYBR Green Master Mix on a StepOnePlus Real-Time PCR System. Cell cycle, apoptosis induction and qRT-PCR results are the mean±SD of at least 3 independent experiments, where *p<0.05, **p<0.001 and ***p<0.0001 versus control cells (0.1% DMSO), employing Anova then Dunnett's Multiple Comparison Test. Compound (1-1) combination studies were performed in cell lines exposed for 48 h to increasing doses of compound (1-1) alone or in combination several conventional anti-leukemic drugs, such as epigenetic modulators, steroids, m-TOR inhibitors and classical cytotoxic agents, and assessed using the Chou & Talalay method. For the sequential combination schemes, cell lines were exposed to azacytidine or panobinostat for 48 or 72 h, washed with drug-free medium and then treated with compound (1-1) for 24 or 48 h. The Combination Index (CI) was determined by median effect plot analysis using CalcuSyn software. CI<1 reflects synergy, CI=1 additivity and CI>1 antagonist effects. Results represent the median and range of 4 independent experiments performed in triplicate.

[5] = system: K-562, NALM-1, CCRF-CEM, MOLT-3 and -4; assay: MTT assay, anti-proliferative effect, rest of the panel; assay type: cell-based; details: Homo sapiens; the rest of the eight cell lines, 72-h exposure
Method: as §1

FKBP12 = FKBP12 (Homo sapiens, UniProt P62942); details: mTOR inhibitor of FKBP12; cited from earlier work
FKBP12, sequence (P62942 whole entry, species assumed): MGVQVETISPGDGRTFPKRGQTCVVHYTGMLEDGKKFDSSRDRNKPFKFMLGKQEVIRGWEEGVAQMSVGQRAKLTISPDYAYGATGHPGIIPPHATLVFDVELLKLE

PI3Kγ (p110γ) = PI3Kγ (p110γ) (Homo sapiens, UniProt P48736); details: cited from earlier work
PI3Kγ (p110γ), sequence (P48736 whole entry, species assumed): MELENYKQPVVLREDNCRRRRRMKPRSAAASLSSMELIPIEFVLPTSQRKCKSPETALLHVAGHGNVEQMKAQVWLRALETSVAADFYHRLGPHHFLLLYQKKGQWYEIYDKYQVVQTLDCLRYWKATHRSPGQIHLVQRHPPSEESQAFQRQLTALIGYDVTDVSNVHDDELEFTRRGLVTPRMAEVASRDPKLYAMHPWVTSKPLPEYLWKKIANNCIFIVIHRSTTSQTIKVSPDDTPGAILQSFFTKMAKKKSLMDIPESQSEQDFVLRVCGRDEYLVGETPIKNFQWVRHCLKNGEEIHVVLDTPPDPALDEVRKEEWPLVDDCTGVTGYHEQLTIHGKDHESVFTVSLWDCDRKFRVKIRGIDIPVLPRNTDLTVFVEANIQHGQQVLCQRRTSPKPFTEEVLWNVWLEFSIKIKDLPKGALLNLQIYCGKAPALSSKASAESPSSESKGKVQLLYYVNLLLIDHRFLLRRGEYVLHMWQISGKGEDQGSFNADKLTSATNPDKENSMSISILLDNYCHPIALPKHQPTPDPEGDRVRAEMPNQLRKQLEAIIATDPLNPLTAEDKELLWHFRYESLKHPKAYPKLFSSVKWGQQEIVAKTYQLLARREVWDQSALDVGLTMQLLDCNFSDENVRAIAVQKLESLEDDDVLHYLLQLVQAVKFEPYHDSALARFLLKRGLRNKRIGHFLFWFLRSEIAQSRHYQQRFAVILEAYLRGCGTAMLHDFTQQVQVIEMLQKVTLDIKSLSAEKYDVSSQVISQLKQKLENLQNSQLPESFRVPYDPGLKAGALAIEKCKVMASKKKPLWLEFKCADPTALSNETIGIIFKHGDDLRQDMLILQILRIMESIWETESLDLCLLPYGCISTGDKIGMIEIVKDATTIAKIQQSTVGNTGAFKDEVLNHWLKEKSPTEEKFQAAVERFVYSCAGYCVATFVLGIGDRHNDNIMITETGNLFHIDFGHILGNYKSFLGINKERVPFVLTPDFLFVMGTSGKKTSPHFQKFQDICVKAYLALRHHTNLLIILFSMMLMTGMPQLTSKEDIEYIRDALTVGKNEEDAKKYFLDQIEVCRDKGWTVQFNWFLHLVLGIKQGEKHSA

PI3Kβ (p110β) = PI3Kβ (p110β) (Homo sapiens, UniProt P42338); details: cited from earlier work
PI3Kβ (p110β), sequence (P42338 whole entry, species assumed): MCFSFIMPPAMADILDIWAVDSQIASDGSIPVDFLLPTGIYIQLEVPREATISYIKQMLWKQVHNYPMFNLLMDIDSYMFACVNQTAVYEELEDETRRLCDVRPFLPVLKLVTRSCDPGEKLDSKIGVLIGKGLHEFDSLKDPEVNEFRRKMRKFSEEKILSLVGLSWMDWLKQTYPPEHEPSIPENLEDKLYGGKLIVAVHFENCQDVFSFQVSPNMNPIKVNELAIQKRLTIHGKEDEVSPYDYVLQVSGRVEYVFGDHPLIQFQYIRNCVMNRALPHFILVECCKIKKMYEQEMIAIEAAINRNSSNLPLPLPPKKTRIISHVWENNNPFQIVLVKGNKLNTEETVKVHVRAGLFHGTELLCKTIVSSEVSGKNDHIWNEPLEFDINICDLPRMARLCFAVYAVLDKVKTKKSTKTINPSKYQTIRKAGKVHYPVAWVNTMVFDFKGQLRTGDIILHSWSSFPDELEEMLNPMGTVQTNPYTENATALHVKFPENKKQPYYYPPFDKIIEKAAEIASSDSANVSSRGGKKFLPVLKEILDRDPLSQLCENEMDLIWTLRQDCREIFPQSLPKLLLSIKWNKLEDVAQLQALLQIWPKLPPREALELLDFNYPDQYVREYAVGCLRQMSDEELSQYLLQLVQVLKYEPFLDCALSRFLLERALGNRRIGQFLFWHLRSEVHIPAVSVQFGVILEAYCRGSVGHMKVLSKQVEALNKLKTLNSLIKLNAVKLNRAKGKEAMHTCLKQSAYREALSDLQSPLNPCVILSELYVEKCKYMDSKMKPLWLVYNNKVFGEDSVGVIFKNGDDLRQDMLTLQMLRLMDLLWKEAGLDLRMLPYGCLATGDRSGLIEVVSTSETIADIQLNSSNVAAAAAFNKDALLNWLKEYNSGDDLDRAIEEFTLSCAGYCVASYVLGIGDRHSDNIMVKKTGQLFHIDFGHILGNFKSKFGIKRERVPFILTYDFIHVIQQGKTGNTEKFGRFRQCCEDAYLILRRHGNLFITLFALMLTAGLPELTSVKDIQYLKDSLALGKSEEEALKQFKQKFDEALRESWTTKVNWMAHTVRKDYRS
PI3Kβ (p110β), sequence (P27986 whole entry partner, species assumed): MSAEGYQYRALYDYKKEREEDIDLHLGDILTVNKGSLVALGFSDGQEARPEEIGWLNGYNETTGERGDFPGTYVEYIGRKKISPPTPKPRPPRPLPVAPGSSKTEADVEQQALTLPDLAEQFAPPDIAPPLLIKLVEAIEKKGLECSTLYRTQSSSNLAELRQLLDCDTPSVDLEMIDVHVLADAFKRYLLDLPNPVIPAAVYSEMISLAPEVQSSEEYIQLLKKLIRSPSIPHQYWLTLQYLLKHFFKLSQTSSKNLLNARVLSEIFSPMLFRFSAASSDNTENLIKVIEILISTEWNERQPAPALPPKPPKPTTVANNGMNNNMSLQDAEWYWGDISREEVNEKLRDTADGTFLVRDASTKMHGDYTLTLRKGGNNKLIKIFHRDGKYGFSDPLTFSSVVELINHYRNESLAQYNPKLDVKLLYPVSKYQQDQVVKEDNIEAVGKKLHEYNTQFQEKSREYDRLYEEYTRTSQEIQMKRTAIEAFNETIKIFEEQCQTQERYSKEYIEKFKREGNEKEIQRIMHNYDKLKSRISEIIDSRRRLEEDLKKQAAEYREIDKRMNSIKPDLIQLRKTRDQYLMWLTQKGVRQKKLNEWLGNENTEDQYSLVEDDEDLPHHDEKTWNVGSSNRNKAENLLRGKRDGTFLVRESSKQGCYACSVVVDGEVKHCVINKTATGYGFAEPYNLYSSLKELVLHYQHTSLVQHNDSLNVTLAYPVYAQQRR

MOLT-4 cells = details: in MOLT-4 cells; cited from earlier work
Reh cells = details: in Reh cells; cited from earlier work
[6] = system: Akt phosphorylation on T308; details: cited from earlier work
[7] = system: Akt phosphorylation on S473; details: cited from earlier work
[8] = sensitive leukemic cells, 48 h exposure to 500 nM (Example 8)

HDAC3, sequence (O15379 whole entry, species assumed): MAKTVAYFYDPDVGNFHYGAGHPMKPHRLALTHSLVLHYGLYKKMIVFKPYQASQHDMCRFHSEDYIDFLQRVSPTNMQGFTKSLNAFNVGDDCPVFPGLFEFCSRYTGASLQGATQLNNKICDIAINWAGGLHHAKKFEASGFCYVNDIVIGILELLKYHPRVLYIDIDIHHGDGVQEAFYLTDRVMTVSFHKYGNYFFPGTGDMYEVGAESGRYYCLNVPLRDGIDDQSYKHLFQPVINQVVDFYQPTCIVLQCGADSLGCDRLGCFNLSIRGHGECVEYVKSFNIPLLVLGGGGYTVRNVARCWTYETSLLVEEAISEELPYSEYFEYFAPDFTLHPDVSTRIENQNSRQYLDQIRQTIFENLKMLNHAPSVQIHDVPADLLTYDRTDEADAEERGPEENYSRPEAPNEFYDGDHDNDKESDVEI
HDAC3, sequence (Q9Y618 395-489 partner limits assumed, species assumed): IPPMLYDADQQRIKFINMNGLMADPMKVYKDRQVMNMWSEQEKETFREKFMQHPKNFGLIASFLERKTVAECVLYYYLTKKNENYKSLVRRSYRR

Cn1c(/C=C/C(=O)NO)ccc1/C=C/C(=O)c1cccc(F)c1 [MC1568]
IC50 (HDAC): 220 nM

Cc1cc(Cl)ccc1OCCCC(=O)NO [Droxinostat, 4-(4-Chloro-2-methylphenoxy)-N-hydroxybutanamide]
IC50 (HDAC3): 16900 nM

CCCC(CCC)C(=O)O [Valproic acid sodium salt]
IC50 (HDAC): 400000 nM

CO[C@H]1C[C@@H]2CC[C@@H](C)[C@@](O)(O2)C(=O)C(=O)N2CCCC[C@H]2C(=O)O[C@H]([C@H](C)C[C@@H]2CC[C@@H](OC(=O)C(C)(CO)CO)[C@H](OC)C2)CC(=O)[C@H](C)/C=C(\C)[C@@H](O)[C@@H](OC)C(=O)[C@H](C)C[C@H](C)/C=C/C=C/C=C/1C [Temsirolimus]
IC50 (mTOR): 1.76 nM

O=C(/C=C/c1ccc(CN(CCO)CCc2c[nH]c3ccccc23)cc1)NO [LAQ824]
IC50 (HDAC): 32 nM

CC(C)[C@H](C(=O)Nc1ccc(C(=O)NO)cc1)c1ccccc1 [AR-42, (S)-N-hydroxy-4-(3-methyl-2-phenylbutanamido)benzamide]
IC50 (HDAC): 30 nM

COc1ccc(-c2ccc3ncc4c(c3c2)n(-c2ccc(N3CCNCC3)c(C(F)(F)F)c2)c(=O)n4C)cn1 [NVP-BGT226]
IC50 (PI3K/mTOR): 1 nM

Cc1sc2c(c1C)C(c1ccc(Cl)cc1)=N[C@@H](CC(=O)Nc1ccc(O)cc1)c1nnc(C)n1-2 [compound (1-1), 2-[(6S)-4-(4-chlorophenyl)-2,3,9-trimethyl-6H-thienol[3,2-f]-[1,2,4]triazolo[4,3-a][1,4]diazepin-6-yl]-N-(4-hydroxyphenyl)acetamide dihydrate]
BRD2 and BRD4 protein levels (BRD2 and BRD4): without modifying protein levels | mRNA levels of BRD2 and BRD4 (BRD2 and BRD4): up-regulation | GI50 (U937): 230 to 384 nM | GI50 (Jurkat): 230 to 384 nM | GI50 (HL60): 230 to 384 nM | levels of c-MYC RNA (c-MYC [1]; K562, after 4-h and 24-h exposure): decreased levels | cMYC protein levels (c-MYC [1]; K562, even after 72 h of treatment): constant | effect in concomitant combination with demethylating agents, HDAC and mTOR inhibitors, glucocorticoids, and conventional cytotoxic drugs [2]: strong synergistic effects | c-MYC mRNA and protein levels (c-MYC [3]; sensitive cell lines (Example 8)): rapid and sustained downregulation | cMYC mRNA and protein levels (c-MYC [3]; sensitive cell lines, 500 nM, after 6-h and up to 72-h treatment): down-regulated | induction of apoptosis ([4]; sensitive cell lines (Example 7)): without induction of apoptosis | cell cycle effect ([4]; sensitive cell lines, time-dependent (Example 7)): cell cycle arrest in G1 | cell cycle effect [4, 8]: increased proportion of cells in cell cycle phase G0/G1 | induction of apoptosis [4, 8]: slight induction of apoptosis | GI50 [5]: ≥ 1000 nM

CO[C@H]1C[C@@H]2CC[C@@H](C)[C@@](O)(O2)C(=O)C(=O)N2CCCC[C@H]2C(=O)O[C@H]([C@H](C)C[C@@H]2CC[C@@H](OCCO)[C@H](OC)C2)CC(=O)[C@H](C)/C=C(\C)[C@@H](O)[C@@H](OC)C(=O)[C@H](C)C[C@H](C)/C=C/C=C/C=C/1C [Everolimus]
IC50 (FKBP12): 1.6 to 2.4 nM

CN(C)c1ccc(C(=O)NCCCCCCC(=O)NO)cc1 [M344]
IC50 (HDAC): 100 nM

CCCCc1nc2cc(/C=C/C(=O)NO)ccc2n1CCN(CC)CC [SB939, (E)-3-(2-butyl-1-(2-(diethylamino)ethyl)-1H-benzo[d]imidazol-5-yl)-N-hydioxyacrylamide]
IC50 (HDAC): 40 to 140 nM

GSK2126458
Ki (PI3Kγ (p110γ)): 0.024 nM | Ki (PI3Kβ (p110β)): 0.13 nM

(3S,6S,9S,15aR)-9-((R)-sec-butyl)-6-((1-methoxy-1H-indol-2-yl)methyl)-3-(6-oxooetyl)decahydro-1H-pyrido[1,2-a][1,4,7,10]tetraazacyclododecine-1,4,7,10(12H)-tetraone [Apicidin]
IC50 (HDAC): 0.7 nM

CCN(CC)Cc1ccc2cc(COC(=O)Nc3ccc(C(=O)NO)cc3)ccc2c1 [ITF2357]
IC50 (HDAC): 7.5 to 16 nM

Cc1[nH]c2ccccc2c1CCNCc1ccc(/C=C/C(=O)NO)cc1 [Panobinostat]
IC50 (MOLT-4 cells): 5 nM | IC50 (Reh cells): 20 nM

COc1ccc(-c2cc3c(C)nc(N)nc3n([C@H]3CC[C@H](OCCO)CC3)c2=O)cn1 [PF-04691502]
IC50 [6]: 7.5 nM | IC50 [7]: 3.8 nM
